Measured values from the NIST ThermoML archive (doi:10.1016/j.jct.2013.07.006).

Assays:
[1] = for molar entropy: 101.33 kPa, Vacuum adiabatic calorimetry
[2] = molar heat capacity at constant pressure; settings: 101.33 kPa, Vacuum adiabatic calorimetry

[Cl][Ru-2]([Cl])([Cl])([Cl])([Cl])[Cl].[NH4+].[NH4+] [diammonium hexachlororuthenate]
Settings	molar entropy, [1] [J/K/mol]	molar heat capacity at constant pressure, [2] [J/K/mol]
5 K, Crystal 2	0.1106	0.3475
5.89 K, Crystal 2	–	0.5877
7.09 K, Crystal 2	–	1.079
8.03 K, Crystal 2	–	1.495
9.46 K, Crystal 2	–	2.313
10 K, Crystal 2	0.9395	2.661
10.8 K, Crystal 2	–	3.236
11.99 K, Crystal 2	–	4.23
13.2 K, Crystal 2	–	5.407
14.5 K, Crystal 2	–	6.916
15 K, Crystal 2	2.827	7.358
15.9 K, Crystal 2	–	8.589
17.35 K, Crystal 2	–	10.37
18.81 K, Crystal 2	–	12.31
20 K, Crystal 2	5.82	13.97
20.31 K, Crystal 2	–	14.26
21.81 K, Crystal 2	–	16.45
23.4 K, Crystal 2	–	18.76
25 K, Crystal 2	9.703	21.24
25.1 K, Crystal 2	–	21.38
26.81 K, Crystal 2	–	24.18
28.54 K, Crystal 2	–	26.91
30 K, Crystal 2	14.44	29.49
30.27 K, Crystal 2	–	30.01
32.02 K, Crystal 2	–	33.06
33.91 K, Crystal 2	–	36.87
35 K, Crystal 2	19.68	38.87
35.95 K, Crystal 2	–	40.66
37.99 K, Crystal 2	–	44.72
40 K, Crystal 2	25.51	48.89
40.05 K, Crystal 2	–	48.96
42.12 K, Crystal 2	–	53.55
44.2 K, Crystal 2	–	58.17
45 K, Crystal 2	31.89	59.91
46.3 K, Crystal 2	–	62.77
48.41 K, Crystal 2	–	67.6
50 K, Crystal 2	38.8	71.36
50.8 K, Crystal 2	–	73.15
53.47 K, Crystal 2	–	79.64
55 K, Crystal 2	46.15	83.48
56.15 K, Crystal 2	–	86.22
58.85 K, Crystal 2	–	92.96
60 K, Crystal 2	53.94	95.95
61.55 K, Crystal 2	–	100.02
64.27 K, Crystal 2	–	107.34
65 K, Crystal 2	62.15	109.25
67.13 K, Crystal 2	–	114.99
70 K, Crystal 2	70.73	122.72
70.82 K, Crystal 2	–	125.13
75 K, Crystal 2	79.67	136.44
75.14 K, Crystal 2	–	136.94
79.45 K, Crystal 2	–	149.83
80 K, Crystal 2	88.97	151.49
83.79 K, Crystal 2	–	162.3
85 K, Crystal 2	98.53	165.79
88.18 K, Crystal 2	–	174.11
90 K, Crystal 2	108.42	179.09
92.84 K, Crystal 1	–	184.67
92.84 K, Crystal 2	–	184.67
95 K, Crystal 1	118.32	184.75
97.88 K, Crystal 1	–	182
100 K, Crystal 1	127.71	180.76
103.06 K, Crystal 1	–	178.1
105 K, Crystal 1	136.44	179.26
108.18 K, Crystal 1	–	182.59
110 K, Crystal 1	144.92	184.83
113.23 K, Crystal 1	–	188.41
115 K, Crystal 1	153.24	190.49
118.27 K, Crystal 1	–	194.14
120 K, Crystal 1	161.47	196.14
123.32 K, Crystal 1	–	199.88
125 K, Crystal 1	169.62	201.54
128.39 K, Crystal 1	–	205.12
130 K, Crystal 1	177.6	206.62
133.46 K, Crystal 1	–	209.77
135 K, Crystal 1	185.5	211.35
138.55 K, Crystal 1	–	214.6
140 K, Crystal 1	193.31	215.93
143.8 K, Crystal 1	–	219.17
145 K, Crystal 1	200.96	220.17
149.2 K, Crystal 1	–	223.33
150 K, Crystal 1	208.44	224.24
154.62 K, Crystal 1	–	227.65
160 K, Crystal 1	223.16	231.48
160.04 K, Crystal 1	–	231.39
165.48 K, Crystal 1	–	235.13
170 K, Crystal 1	237.38	238.13
170.9 K, Crystal 1	–	238.71
176.33 K, Crystal 1	–	242.45
180 K, Crystal 1	251.18	244.78
181.77 K, Crystal 1	–	245.78
187.21 K, Crystal 1	–	249.27
190 K, Crystal 1	264.65	251.43
192.66 K, Crystal 1	–	253.09
198.19 K, Crystal 1	–	256.75
200 K, Crystal 1	277.7	257.83
203.88 K, Crystal 1	–	260.16
209.62 K, Crystal 1	–	263.57
210 K, Crystal 1	290.43	263.74
215.39 K, Crystal 1	–	266.9
220 K, Crystal 1	302.81	269.06
221.19 K, Crystal 1	–	269.39
226.95 K, Crystal 1	–	272.55
230 K, Crystal 1	314.87	274.21
232.71 K, Crystal 1	–	275.46
238.48 K, Crystal 1	–	277.79
240 K, Crystal 1	326.68	278.37
244.25 K, Crystal 1	–	279.78
250 K, Crystal 1	338.07	281.53
250.07 K, Crystal 1	–	281.53
256.04 K, Crystal 1	–	283.36
260 K, Crystal 1	349.21	284.44
262.1 K, Crystal 1	–	285.02
268.12 K, Crystal 1	–	286.68
270 K, Crystal 1	359.93	287.18
274.34 K, Crystal 1	–	288.18
280 K, Crystal 1	370.49	290.18
280.52 K, Crystal 1	–	290.51
286.4 K, Crystal 1	–	292.01
290 K, Crystal 1	380.72	293.09
292.34 K, Crystal 1	–	293.92
298.15 K, Crystal 1	388.87	295.66
298.3 K, Crystal 1	–	295.25
300 K, Crystal 1	390.7	296.16
304.21 K, Crystal 1	–	297.33
310 K, Crystal 1	400.43	298.91
310.08 K, Crystal 1	–	298.91
315.97 K, Crystal 1	–	300.4
320 K, Crystal 1	409.99	301.15
321.87 K, Crystal 1	–	301.57
325 K, Crystal 1	414.64	302.23

Settings	Triple point temperature [K]
[1], Crystal 2, Adiabatic calorimetry	92.84
